Results reported in ChEMBL document CHEMBL4196143, “Total Synthesis and Structure Revision of Palmarumycin B6” (2018).

System: Aedes albopictus
Test: Larvicidal activity against Aedes albopictus assessed as […] larval mortality after 24 hrs
Assay type: functional

SMILES | LC50 [µM]
O=C1CCC2(Oc3cccc4cccc(c34)O2)c2c(Cl)ccc(O)c21 | 227
O=C1CCC2(Oc3cccc4cccc(c34)O2)c2ccc(Cl)c(O)c21 | 32.7
